Series [1] addresses T1, human apurinic/apyrimidinic endonuclease 1 (APE1) (Homo sapiens, UniProt P27695).
T1 construct: His; made in house
The series is described as follows: APE1 inhibition assay. The series is classed as biochemical. The method, then: (§1) All compounds were dissolved in DMSO to a final stock concentration of 10 mM and stored at −20 °C. Initial screening for IN inhibitory effect was done at 100 μM and dilutions were made in DMSO. Compounds showing at least 50% inhibition at 100 μM were selected for IC50 determinations. γ-[^32P]-ATP was purchased from Perkin Elmer (Waltham, MA, USA). The expression system for wild-type IN was a generous gift of Dr. Robert Craigie, Laboratory of Molecular Biology, NIDDK, NIH (Bethesda, MD, USA). His-tagged APE1 was purified from an expression system kindly provided by Dr. Tom Curran, Department of Developmental Neurobiology, St. Jude Children’s Research Hospital (Memphis, TN, USA).
(§2) 21-mer oligonucleotides used in IN inhibition assay [21top (5’-[…]-3’) and 21bot (5’-ACTGCTAGAGATTTTCCA CAC-3’)] were purchased from Integrated DNA Technologies (Coralville, IA, USA) and purified by UV shadowing on polyacrylamide gel. The oligonucleotides used in APE1 inhibition assay [top strand: 5′-ATTTCACCGGTACG(F)TCTAGAATC CG-3′ containing the tetrahydrofuran synthetic abasic residue (F), and bottom strand: 3′-TAAAGTGG CCATGC(C)AGATCTTAGGC-5′] were purchased from The Midland Certified Reagent Company (Midland, TX, USA). To analyze the extent of 3’-processing and strand transfer with 5’-end labeled substrates, 21top was 5’-end labeled using T4 polynucleotide kinase (Epicentre, Madison, WI, USA) and [γ-^32P]-ATP (Perkin Elmer, Waltham, MA, USA). The kinase was heat-inactivated at 95 °C and 21bot was added in […]. The reaction mixture was allowed to cool slowly to room temperature, and purified through a spin-25 minicolumn (USA Scientific, Ocala, FL, USA) to separate annealed double-stranded oligonucleotide from unincorporated material. The oligonucleotides used in the APE1 inhibition assay were labeled using a similar protocol.
APE1 inhibition assay was performed as previously described. To determine the extent of endonucleolytic cleavage of the abasic residue, the test compounds, diluted in DMSO, were preincubated with recombinant APE1 at a final concentration of 0.05 nM in the reaction buffer [50 mM NaCl, 1 mM HEPES, pH 7.5, 50 μM EDTA, 50 μM dithiothreitol, 10% glycerol (w/v), 7.5 mM MnCl2, 0.1 mg mL‑1 bovine serum albumin, 10 mM 2-mercaptoethanol, 10% DMSO, and 25 mM MOPS, pH 7.2] at 30 °C for 10 min. Following preincubation, 200 nM of the 5′-end ^32P-labeled linear oligonucleotide substrate was added, and incubated for an additional 10 minutes. Reactions were quenched by the addition of an equal volume (16 μL) of loading dye (98% deionized formamide, 10 mM EDTA, 0.025% xylene cyanol, and 0.025% bromophenol blue). An aliquot (5 μL) was electrophoresed on a denaturing 20% polyacrylamide gel (0.09 M tris-borate pH 8.3, 2 mM EDTA, 20% acrylamide, 8 M urea). The gels were dried, exposed in a PhosphorImager cassette and analyzed using a Typhoon 8610 Variable Mode Imager (Amersham Biosciences). Quantification of enzyme inhibition was done using Image Quant 5.2 software. The percent inhibition (% I) was calculated using the following equation: %I = 100 × [1 − (D − C) / (N − C)] where C, N, and D are the fractions of 26-mer substrate converted to 13-mer incision products (or integration products) for DNA alone, DNA plus APE1, and DNA, APE1 plus test compound, respectively. IC50 values were determined by plotting the logarithm of compound concentration as a function of %I to obtain the concentration that produced 50% inhibition. An optimum concentration of APE1 enzyme, at which there is complete conversion of the synthetic abasic-site containing oligonucleotide substrate to its cleaved product without subsequent exonuclease activity, was used in the assay.

The target of series [2] is T2, HIV-1 IN (Human immunodeficiency virus type 1 group M subtype B, UniProt P12497).
T2 construct: pre-incubated with purified recombinant IN (at a final concentration of 200 nM); made in house
The series is described as follows: In vitro IN inhibition assay (3’-processing and strand transfer). The class given is biochemical. The note with it: for IC50: Mn2+ cofactor (7.5 mM MnCl2); for IN inhibition (in words): highest concentration tested 100 μM. On the procedure: as §1, §2
To determine the extent of 3’-processing and strand transfer, the test compounds, diluted in DMSO, were pre-incubated with purified recombinant IN (at a final concentration of 200 nM) in the reaction buffer [50 mM NaCl, 1 mM HEPES (pH 7.5), 50 μM EDTA, 50 μM dithiothreitol, 10% glycerol (w/v), 7.5 mM MnCl2, 0.1 mg mL–1 bovine serum albumin, 10 mM 2-mercaptoethanol, 10% dimethyl sulfoxide, and 25 mM MOPS (pH 7.2)] at 30 °C for 30 min. For Mg^2+ assay, 7.5 mM MgCl2 was substituted for MnCl2 and an optimal concentration of PEG was included in the reaction buffer. Following the pre-incubation, 20 nM of the 5’-end ^32P-labeled linear oligonucleotide substrate was added to the reaction mixture and incubated for an additional 1 h. Reactions were quenched by addition of 50X loading dye (98% deionized formamide, 10 mM EDTA, 0.025% xylene cyanol, and 0.025 % bromophenol blue). An aliquot was subjected to electrophoresis on a denaturing polyacrylamide gel (0.09 M tris–borate, pH 8.3, 2 mM EDTA, 20% acrylamide, 8M urea). Gels were dried under vacuum, exposed in a PhosphorImager cassette and visualized with a Typhoon 8610 Variable Mode Imager (Amersham Biosciences). Quantification was done with Image Quant 5.2 software. Percent inhibition (%I) was calculated using the following equation: %I = 100 × [1 − (D − C) / (N − C)] where C, N, and D are the fractions of 21-mer substrate converted into 19-mer (product of 3’-processing) or strand-transfer products for DNA alone, DNA plus IN, and DNA, IN plus test compound, respectively. IC50 values were determined by plotting the logarithm of test compound concentrations as a function of %I to obtain the concentration that produced 50% inhibition.

The mark [3] stands for this setting: read-out: Inhibition of APE1 catalytic activity IC50.
Setting [4] is: read-out: Inhibition of IN catalytic activity IC50, 3’-Processing.
Where [5] appears, read: read-out: Inhibition of IN catalytic activity IC50, Strand Transfer.

These results are taken from PMC6264390, “Design, Synthesis and Structure-activity Studies of Rhodanine Derivatives as HIV-1 Integrase Inhibitors” (Molecules, 2010).

Read-outs that look alike come from different tables or passages of the source.

T1 sequence (P27695 whole entry): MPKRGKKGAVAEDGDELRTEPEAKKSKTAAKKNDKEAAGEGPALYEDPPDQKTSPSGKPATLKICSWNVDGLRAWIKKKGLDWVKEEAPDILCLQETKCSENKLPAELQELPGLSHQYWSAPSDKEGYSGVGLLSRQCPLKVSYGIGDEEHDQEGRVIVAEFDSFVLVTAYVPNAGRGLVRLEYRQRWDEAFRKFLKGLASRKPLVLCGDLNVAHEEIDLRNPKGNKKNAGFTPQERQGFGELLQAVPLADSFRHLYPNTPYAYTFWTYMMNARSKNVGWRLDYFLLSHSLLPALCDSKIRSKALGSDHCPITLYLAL

The IC50 is the concentration at which inhibition is half-maximal. With “2-{[5-(2-Hydroxy-3,5-diisopropylbenzylidene)-4-oxo-2-thioxo-1,3-thiazolidin-3-yl]amino}-N-(3,4,5-trimethoxyphenyl)-2-thioxoacetamide [Compound 40]”, the values for the IC50 in series [1] (setting [3]), in series [2] (setting [4]) and in series [2] (setting [5]) were > 100 µM, > 100 µM and 95 µM, respectively.
For “2-{[5-(2-Hydroxy-3,5-diisopropylbenzylidene)-4-oxo-2-thioxo-1,3-thiazolidin-3-yl]amino}-N-(4-hydroxyphenyl)-2-thioxoacetamide [Compound 54]”, the IC50 in series [1] (setting [3]), in series [2] (setting [4]) and in series [2] (setting [5]) was > 100 µM in each case. The “IN inhibition (in words)” value in series [2] is “loss of activity”.
As for “2-{[5-(5-Bromo-2-hydroxy-3-methoxybenzylidene)-4-oxo-2-thioxo-1,3-thiazolidin-3-yl]amino}-N-(3,4,5-trimethoxyphenyl)acetamide [Compound 38]”, the IC50 amounted to 65 ± 33 µM in series [1] (setting [3]), 51 ± 25 µM in series [2] (setting [4]) and 32 ± 11 µM in series [2] (setting [5]).
A word on the melting point: it is the temperature, or range, at which the solid turns liquid. As for `O=C(Nc1ccc(F)cc1)C(=S)NN1C(=O)C(=Cc2ccc(Cl)cc2)SC1=S` [Compound 6, 2-{[5-(4-Chlorobenzylidene)-4-oxo-2-thioxo-1,3-thiazolidin-3-yl]amino}-N-(4-fluorophenyl)-2-thioxo-acetamide], the melting point was in the range of 204 to 205 °C. Also, in series [1] (setting [3]), the IC50 is > 100 µM. Also, in series [2] (setting [4]), the IC50 was > 100 µM. In addition, the IC50 in series [2] (setting [5]) was > 100 µM.
The molecule `O=C(Nc1ccc(Cl)cc1)C(=S)NN1C(=O)C(=Cc2ccc(Cl)cc2)SC1=S` [Compound 7, 2-{[5-(4-Chlorobenzylidene)-4-oxo-2-thioxo-1,3-thiazolidin-3-yl]amino}-N-(4-chlorophenyl)-2-thioxo-acetamide] displayed a melting point of 211 to 212 °C. Also, the IC50 in series [2] (setting [4]) was > 100 µM. Further, in series [2] (setting [5]), the IC50 was > 100 µM. In addition, the “IN inhibition (in words)” value in series [2] was “lacked any IN inhibitory activity”.
`O=C(Nc1cccc([N+](=O)[O-])c1)C(=S)NN1C(=O)C(=Cc2ccc(Cl)cc2)SC1=S` [Compound 8, 2-{[5-(4-Chlorobenzylidene)-4-oxo-2-thioxo-1,3-thiazolidin-3-yl]amino}-N-(3-nitrophenyl)-2-thioxo-acetamide] had a melting point of 221 to 222 °C. The IC50 in series [1] (setting [3]) came to 76 ± 5 µM. Also, the IC50 in series [2] (setting [4]) was > 100 µM. In series [2] (setting [5]), the IC50 was > 100 µM. Moreover, the “IN inhibition (in words)” value in series [2] is “lacked any IN inhibitory activity”.
Molecule `COc1ccc(NC(=O)C(=S)NN2C(=O)C(=Cc3ccc(Cl)cc3)SC2=S)cc1` [Compound 9, 2-{[5-(4-Chlorobenzylidene)-4-oxo-2-thioxo-1,3-thiazolidin-3-yl]amino}-N-(4-methoxyphenyl)-2-thioxoacetamide] returned a melting point of 186 to 187 °C. In series [1] (setting [3]), the IC50 turned out to be 47 ± 2 µM. Moreover, the IC50 in series [2] (setting [4]) stood at 33 µM. The IC50 in series [2] (setting [5]) was 33 µM.
Consider `O=C(Nc1ccccc1)C(=S)NN1C(=O)C(=Cc2c[nH]c3ccccc23)SC1=S` [Compound 10, 2-{[5-(1H-indol-3-ylmethylene)-4-oxo-2-thioxo-1,3-thiazolidin-3-yl]amino}-N-phenyl-2-thioxo-acetamide], for which the melting point was 206 to 207 °C. In addition, the IC50 in series [1] (setting [3]) was > 100 µM. In addition, the IC50 in series [2] (setting [4]) is > 100 µM. The IC50 in series [2] (setting [5]) is > 100 µM. In addition, the “IN inhibition (in words)” value in series [2] is “abolished any activity”.
The molecule `Cc1ccc(C(=O)C=C2SC(=S)N(NC(=S)C(=O)Nc3ccccc3)C2=O)cc1` [Compound 11, 2-{5-[2-(4-Methylphenyl)-2-oxoethylidene]-4-oxo-2-thioxo-1,3-thiazolidin-3-yl}amino-N-phenyl-2-thioxoacetamide] returned a melting point of 147 to 148 °C. The IC50 in series [1] (setting [3]) was > 100 µM. Further, in series [2] (setting [4]), the IC50 came to 58 ± 4 µM. Moreover, the IC50 in series [2] (setting [5]) worked out at 20 ± 6 µM.
On the same counts, the results for `O=C(Nc1ccc(F)cc1)C(=S)NN1C(=O)C(=Cc2ccc([N+](=O)[O-])o2)SC1=S` [Compound 12, N-(4-fluorophenyl)-2-{5-[(5-nitro-2-furyl)methylene]-4-oxo-2-thioxo-1,3-thiazolidin-3-yl}amino-2-thioxoacetamide] are 155 to 156 °C, 89 ± 13 µM, 100 µM and 93 µM.
The molecule `O=C(Nc1cccc([N+](=O)[O-])c1)C(=S)NN1C(=O)C(=Cc2ccc([N+](=O)[O-])o2)SC1=S` [Compound 14, 2-{-5-[(5-Nitro-2-furyl)methylene]-4-oxo-2-thioxo-1,3-thiazolidin-3-yl}amino-N-(3-nitrophenyl)-2-thioxoacetamide] came in with a melting point of 152 to 153 °C. In addition, in series [1], the IC50 was > 100 µM. In series [2] (setting [4]), the IC50 was found to be 58 µM. In addition, in series [2] (setting [5]), the IC50 stood at 58 µM.
Turning to `O=C(Nc1cccc(C(F)(F)F)c1)C(=S)NN1C(=O)C(=Cc2ccc([N+](=O)[O-])o2)SC1=S` [Compound 15, 2-{5-[(5-Nitro-2-furyl)methylene]-4-oxo-2-thioxo-1,3-thiazolidin-3-yl}amino-2-thioxo-N-[3-(trifluoro-methyl)phenyl]acetamide], the melting point fell in the range of 163 to 164 °C. Further, the IC50 in series [2] (setting [4]) stood at 61 ± 35 µM. Further, the IC50 in series [2] (setting [5]) is 56 ± 11 µM.
For `COc1cc(/C=C2/SC(=S)N(NC(=S)C(=O)Nc3cc(C(F)(F)F)cc(C(F)(F)F)c3)C2=O)cc(OC)c1OC` [Compound 26, N-[3,5-bis(trifluoromethyl)phenyl]-2-{[4-oxo-2-thioxo-5-(3,4,5-trimethoxybenzylidene)-1,3-thiazol-idin-3-yl]amino}-2-thioxoacetamide], in that order: 187 to 188 °C, > 100 µM and > 100 µM.
